Results as given in patent US20170143787A1, “CHEMOKINE RECEPTOR ANTAGONIST AND ITS COMBINATIONAL THERAPY” (Pertinax Therapeutics Inc., priority 2014, published 2017).

Legend:
[1] = test system: rat HCC cell line, CRL-1601; conditions: 12.5 or 25 mg/kg/day s.c. for 4 weeks
From the text: The CXCR4 antagonists used was the short peptide dimer antagonist CTCE-9908 (SEQ ID NO.1). A rat orthotopic hepatocellular carcinoma (HCC) model was established by injection of a rat HCC cell line, CRL-1601, into the left lobe of the liver of Buffalo rats. Since the rat HCC cell line was generated from Buffalo rats, in vivo formed tumor in the Buffalo rats can mimic the clinical setting. […]
The first group (control) received sham operation followed by water for irrigation. […] The dimension of the primary tumour was measured along with liver function. The microvessel density, proliferation index of tumor cells, apoptotic state and morphology of tumour cells in primary tumour and metastases were analysed by immunohistochemistry. […] The number of metastatic tumour loci was analysed. Plasma SDF-1 was analyzed by ELISA. […]
This study examined a rat model of hepatocellular carcinoma (HCC) that mimics transarterial chemoembolization in the clinical setting. […] One week after the last CTCE-9908 treatment, the rats were sacrificed and assessments of the tumor as well as the circulating cells were made by luminescence and flow cytometry, respectively.

[2] = test system: refractory neoplasms (various solid tumors); test: open label, dose-finding trial (Accelerated Titration Design) in subjects with refractory neoplasms; type: in vivo, human
Protocol: According to the study design, the cohort was to be expanded in the case of moderate toxicity to include more subjects and additional dose increments (40%) until the maximum dose of 5 mg/kg or dose limiting toxicity was achieved.
Subjects were dosed daily for 4 consecutive weeks (not including weekends and holidays) and dose limiting toxicity was assessed after subjects have completed their treatment.
Toxicity reported during the study was graded according to the National Cancer Institute (NCI) CTCAE (Common Terminology Criteria for Adverse Events) v3.0. A Dose Limiting Toxicity (DLT) was defined as follows: • a) Any grade ≧3 reversible non-haematologic treatment-related toxicity OR • b) Any irreversible grade ≧2 non-haematologic treatment-related toxicity OR • c) Any grade ≧4 haematologic treatment-related toxicity lasting longer than 10 days during the 4 weeks of treatment
For the purpose of this study, Moderate Toxicity has been defined according to NCI CTCAE v3.0. Adverse events were treated when they occurred. No investigational or commercial agents or therapies were administered with the intent to treat the subject's malignancy during the period that the subjects were in the study.

KGVSLSYR-X-RYSLSVGK [CTCE-9908]
tumor regression ([1]; CTCE-9908 in combination with hepatic artery ligation (HAL), luminescence and necropsy): up to 80% | tolerability ([1]; rats): well tolerated by all rats | number of Moderate Toxicities observed during the study ([2]; NCI CTCAE v3.0, whole study): eight | overall stable disease, number of subjects ([2]; at the end of their last treatment cycle, 1, 2.5 and 5 mg/kg/day doses): five | Dose Limiting Toxicity (DLT) ([2]; daily dosing for 4 consecutive weeks, up to 5 mg/kg, NCI CTCAE v3.0): no DLT was reported | tumor markers ([2]; one ovarian cancer subject and one colorectal cancer subject): reduction in tumor markers | duration of stable disease ([2]; one small bowel subject): up to seven | Maximum Tolerated Dose (MTD) ([2]; subjects with refractory neoplasms, up to 5 mg/kg): not established
